Measurements as given in ChEMBL document CHEMBL5241082, “Discovery and Characterization of Benzimidazole Derivative XY123 as a Potent, Selective, and Orally Available RORγ Inverse Agonist” (J Med Chem, 2021).

How the values were obtained:
[1] = in vitro; settings: human, liver microsomes
[2] = in vitro; settings: rat, liver microsomes
[3] = in vivo; settings: Sprague-Dawley, rat, iv, 5 mg/kg

Row | half-life at 1 µM [1] [h] | half-life at 1 µM [2] [h] | clearance at 24 h [3] [mL/min/kg] | Compound
1 | > 2 | > 2 | – | O=C(c1ccc(F)cc1)C1CCN(CCn2c(=O)[nH]c3ccccc3c2=O)CC1 [KETANSERIN]
2 | > 2 | > 2 | 3.33 | CCS(=O)(=O)c1ccc(CC(=O)Nc2ccc(-c3nc4ccc(C(F)(F)F)cc4n3[C@@H](C)c3ccc(F)cc3)cc2)cc1
3 | 0.0505 | 0.373 | 3 | CCS(=O)(=O)c1ccc(CC(=O)Nc2ccc(-c3nc4ccc(C(F)(F)F)cc4n3[C@H](C)c3ccc(F)cc3)cc2)cc1
